Measured values from article PMC12066480, “Optimization of neuron-specific interfering peptides targeting GABAB receptor downregulation for proteolytic stability for conferring neuroprotection in a mouse model of cerebral ischemia” (Frontiers in Pharmacology, 2025).
Ends that are not written are not given here.

What was measured:
[1] = system: cultured neurons (neuron/glia cultures)
[2] = system: cultured neuron/glia cells
[3] = system: cultured neurons (neuron/glia cultures); assay: Peptide uptake into individual cultured neurons, colocalization immunocytochemistry; details: 1 h
[4] = Proteolytic stability in blood serum, Western blot; details: peptide stock 1 μg/μL added 1:5, 37°C, 3 independent experiments and one technical replicate (Figures 3A-C)
Protocol: For testing the resistance of the peptides to proteolytic degradation blood serum was prepared from blood collected from naïve mice decapitated under deep isoflurane anesthesia. The blood samples were allowed to clot at RT for 10–15 min, followed by centrifugation at 2000 g for 10 min and 4°C to separate the serum. The serum was stored at −80°C until used.
For testing, a peptide stock solution of 1 μg/μL was added directly to the serum in a ratio of 1:5 and incubated at 37°C for different times. After incubation, the mixture was diluted 1:4 with PBS and the samples were incubated with 2x Laemmli sample buffer (Bio-Rad) for 1 h at 37°C. The samples were subjected to tricine-sodium dodecyl sulfate-polyacrylamide gel electrophoresis (SDS-PAGE) using 1 mm thick 16% gels modified for the detection of small peptides as described by ([Too et al., 1994]).
Proteins were transferred onto 0.1 μm nitrocellulose membranes, previously coated with a solution of 0.5% gelatine ([Too et al., 1994]), in a semi-dry transfer cell (Trans-Blot SD; Bio-Rad) for 70 min at 10 V. After transfer, the blots were immediately incubated in 4% PFA for 5 min, thoroughly washed and blocked for 1 h in PBS containing 5% non-fat dry milk at room temperature. Thereafter, the blots were incubated with Alexa Fluor 750-streptavidin overnight at 4°C in PBS containing 5% non-fat dry milk. The blots were washed three times for 10 min with TBST and immunoreactivity was detected by the ODYSSEY CLx scanner (LI-COR Biosciences). For quantification of signal intensity, the images were analyzed with the Image Studio software (LI-COR Biosciences).

Row | Sequence | colocalization with GABAB receptors and neuronal marker NeuN [1] | uptake of truncated RVG peptides (attached to 9R) into cultured neurons, screening [2] | degradation after incubation for up to 72 h in mouse serum [4] | other results
1 | FTNSRGKRRRRRRRRRR [Figure 2A peptide 5] | selectively taken up by neurons | retained neuron-specific uptake | – | –
2 | GTPCDIFTRRRRRRRRR [Figure 2A peptide 4] | selectively taken up by neurons | retained neuron-specific uptake | – | peptide uptake into individual neurons by immunocytochemistry ([3]; 10 μg/mL, normalized to peptide 4, 50 neurons per sequence, two independent experiments (Figure 2B)): considerably more efficiently taken up by neurons than the other peptides tested; cell-type selectivity of uptake (NeuN vs GFAP colocalization) ([3]; NeuN, GFAP, DAPI, 3 independent determinations in triplicates (Figure 2C)): lack of uptake by astrocytes
3 | GTPCDIFTRRRRRRRRRFQFTQNQKKEDSKTSTSV [PP2A-Pep] | – | – | did not result in an appreciable degradation | –
4 | GTPCDIFTRRRRRRRRRLQDTPEKTTYIK [CHOP-Pep] | – | – | did not result in an appreciable degradation | –
5 | GTPCDIFTRRRRRRRRRSETQDTMKTGSSTNNNEEEKSR [CaMKII-Pep] | – | – | did not result in an appreciable degradation | –
6 | YTIWMPENPRPGTPCDIFTNSRGKRASNGGGGRRRRRRRRR [Figure 1A peptide 12] | – | – | – | uptake into cultured neuron/glia cells (Figure 1A) [2]: did not affect its uptake into the cultured cells
7 | YTIWMPENRRRRRRRRR [Figure 2A peptide 2] | selectively taken up by neurons | retained neuron-specific uptake | – | –
